Results reported in PubChem BioAssay (NCI).
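Briefly, cells in 96-well plates were exposed to five compound concentrations for 48 h, and endpoints were estimated by linear interpolation. Here, GI50 denotes the concentration required for 50% inhibition of growth. TGI: concentration producing complete growth inhibition.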

Tests used:
Assay in all cases: NCI-60 cell line screen, 48 h
[1] = test system: CAKI-1 renal
[2] = test system: SNB-75 CNS
[3] = test system: NCI-H460 lung
[4] = test system: CCRF-CEM leukemia
[5] = test system: EKVX NSCLC
[6] = test system: HCT-116 colon
[7] = test system: NCI-H522 lung
[8] = test system: OVCAR-3 ovarian
[9] = test system: A498 renal
[10] = test system: A549 NSCLC
[11] = test system: TK-10 renal
[12] = test system: NCI-H23 lung
[13] = test system: 786-0 renal
[14] = test system: HCC-2998 colon
[15] = test system: LOX IMVI melanoma
[16] = test system: HL-60(TB) leukemia
[17] = test system: UACC-62 melanoma
[18] = test system: SK-MEL-5 melanoma
[19] = test system: HCT-15 colon
[20] = test system: OVCAR-8 ovarian
[21] = test system: OVCAR-5 ovarian
[22] = test system: SF-539 CNS
[23] = test system: DU-145 prostate
[24] = test system: U251 CNS
[25] = test system: RXF 393 renal
[26] = test system: MCF7 breast
[27] = test system: BT-549 breast
[28] = test system: T-47D breast
[29] = test system: MDA-MB-231 breast
[30] = test system: SR leukemia
[31] = test system: PC-3 prostate
[32] = test system: SN12C renal
[33] = test system: M14 melanoma
[34] = test system: SK-MEL-28 melanoma
[35] = test system: SK-MEL-2 melanoma
[36] = test system: SW-620 colon
[37] = test system: SNB-19 CNS
[38] = test system: HS 578T breast
[39] = test system: OVCAR-4 ovarian
[40] = test system: K-562 leukemia
[41] = test system: HOP-62 NSCLC
[42] = test system: IGROV1 ovarian
[43] = test system: COLO 205 colon
[44] = test system: UO-31 renal
[45] = test system: NCI-H226 lung
[46] = test system: ACHN renal
[47] = test system: SF-295 CNS
[48] = test system: MOLT-4 leukemia
[49] = test system: KM12 colon
[50] = test system: SF-268 CNS
[51] = test system: MALME-3M melanoma
[52] = test system: UACC-257 melanoma
[53] = test system: RPMI-8226 leukemia
[54] = test system: HT29 colon
[55] = test system: SK-OV-3 ovarian
[56] = test system: NCI/ADR-RES ovarian
[57] = test system: HOP-92 NSCLC
[58] = test system: MDA-MB-435

SMILES: O=C1C=C(OCC=C(Cl)Cl)C(=O)c2ccccc21
- GI50 [1]: 23.3 µM
- TGI [1]: > 100 µM
- GI50 [2]: 7.4 µM
- TGI [2]: 56.9 µM
- GI50 [3]: 39.3 µM
- TGI [3]: > 100 µM
- GI50 [4]: 3.03 µM
- TGI [4]: > 19.7 µM
- GI50 [5]: 3.33 µM
- TGI [5]: 28.2 µM
- GI50 [6]: 2.52 µM
- TGI [6]: 7.71 µM
- GI50 [7]: 0.888 µM
- TGI [7]: 6.24 µM
- GI50 [8]: 1.9 µM
- TGI [8]: 4.13 µM
- GI50 [9]: > 86.2 µM
- TGI [9]: > 100 µM
- GI50 [10]: 33.2 µM
- TGI [10]: > 100 µM
- GI50 [11]: 61.2 µM
- TGI [11]: > 100 µM
- GI50 [12]: 3.63 µM
- TGI [12]: > 85 µM
- GI50 [13]: 51.9 µM
- TGI [13]: > 100 µM
- GI50 [14]: > 100 µM
- TGI [14]: > 100 µM
- GI50 [15]: 1.09 µM
- TGI [15]: 4.35 µM
- GI50 [16]: 1.39 µM
- GI50 [17]: 2.51 µM
- TGI [17]: 7.64 µM
- GI50 [18]: 1.53 µM
- TGI [18]: 3.85 µM
- GI50 [19]: 7.05 µM
- TGI [19]: > 100 µM
- GI50 [20]: 3.29 µM
- TGI [20]: 15.8 µM
- GI50 [21]: 8.92 µM
- TGI [21]: > 82.1 µM
- GI50 [22]: 43.9 µM
- TGI [22]: > 100 µM
- GI50 [23]: 2.8 µM
- TGI [23]: 8.94 µM
- GI50 [24]: 2.41 µM
- TGI [24]: 13.8 µM
- GI50 [25]: 2.46 µM
- TGI [25]: 11.1 µM
- GI50 [26]: 1.61 µM
- TGI [26]: 3.81 µM
- GI50 [27]: 4.94 µM
- TGI [27]: > 30.3 µM
- GI50 [28]: 2.4 µM
- TGI [28]: > 29.6 µM
- GI50 [29]: 3.11 µM
- TGI [29]: 17.7 µM
- TGI [30]: > 20.4 µM
- GI50 [31]: 5.14 µM
- TGI [31]: > 100 µM
- GI50 [32]: 2.61 µM
- TGI [32]: 8.27 µM
- GI50 [33]: 3.73 µM
- TGI [33]: 30.2 µM
- GI50 [34]: 4.91 µM
- TGI [34]: 23.9 µM
- GI50 [35]: 2.34 µM
- GI50 [36]: 3.51 µM
- TGI [36]: 11.1 µM
- GI50 [37]: > 91.1 µM
- TGI [37]: > 100 µM
- GI50 [38]: 2.7 µM
- TGI [38]: 8.47 µM
- GI50 [39]: 1.61 µM
- TGI [39]: 3 µM
- GI50 [40]: 1.01 µM
- TGI [40]: > 23 µM
- GI50 [41]: 54.9 µM
- TGI [41]: > 100 µM
- GI50 [42]: 4.04 µM
- TGI [42]: 23.5 µM
- GI50 [43]: 4.39 µM
- TGI [43]: 12.1 µM
- GI50 [44]: 3.15 µM
- TGI [44]: 15.9 µM
- GI50 [45]: 18.7 µM
- TGI [45]: 67.5 µM
- GI50 [46]: 7.02 µM
- TGI [46]: 99.7 µM
- GI50 [47]: 12.7 µM
- TGI [47]: > 65.8 µM
- GI50 [48]: 2.34 µM
- TGI [48]: > 24 µM
- GI50 [49]: 8.41 µM
- TGI [49]: > 90.7 µM
- GI50 [50]: 6.57 µM
- TGI [50]: > 85.7 µM
- GI50 [51]: 2.18 µM
- TGI [51]: 6.11 µM
- GI50 [52]: 2.15 µM
- TGI [52]: 11 µM
- GI50 [53]: 0.955 µM
- TGI [53]: > 20.8 µM
- GI50 [54]: 11.7 µM
- TGI [54]: > 100 µM
- GI50 [55]: > 100 µM
- TGI [55]: > 100 µM
- GI50 [56]: 3.94 µM
- TGI [56]: > 51.7 µM
- GI50 [57]: 2.68 µM
- TGI [57]: 9.28 µM
- GI50 [58]: 1.65 µM
- TGI [58]: 3.04 µM
